These results are taken from US7384931B2, “Constrained compounds as CGRP-receptor antagonists” (Bristol-Myers Squibb Company, priority 2004, dated 2008).

Each structure is given as a SMILES string.

By IC50 is commonly meant the concentration at which inhibition is half-maximal. Read a low IC50 as higher potency.

Chain of CGRP receptor (Q16602 23-461): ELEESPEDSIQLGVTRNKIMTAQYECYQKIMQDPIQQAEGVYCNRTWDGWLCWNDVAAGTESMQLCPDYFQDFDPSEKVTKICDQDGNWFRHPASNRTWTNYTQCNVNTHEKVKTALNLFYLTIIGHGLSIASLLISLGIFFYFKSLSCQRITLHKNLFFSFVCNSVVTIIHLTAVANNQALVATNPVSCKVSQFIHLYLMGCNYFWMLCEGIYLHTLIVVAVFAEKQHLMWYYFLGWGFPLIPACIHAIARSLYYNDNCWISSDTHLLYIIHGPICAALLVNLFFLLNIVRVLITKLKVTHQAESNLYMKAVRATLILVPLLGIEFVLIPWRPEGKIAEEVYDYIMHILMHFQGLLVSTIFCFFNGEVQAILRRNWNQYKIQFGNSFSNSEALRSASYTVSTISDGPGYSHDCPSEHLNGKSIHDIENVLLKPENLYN
Chain of CGRP receptor (O60894 27-148): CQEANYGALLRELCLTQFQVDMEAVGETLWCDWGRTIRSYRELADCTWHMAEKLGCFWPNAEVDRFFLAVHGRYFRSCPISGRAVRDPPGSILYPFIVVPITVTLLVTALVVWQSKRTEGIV

The experiment has as its target CGRP receptor (Homo sapiens, UniProt O60894+Q16602). The experiment in a line: CGRP radioligand binding assay ([125I]-CGRP displacement, SK-N-MC homogenate). Also on record: endogenous in cells; host or cells: SK-N-MC cells (homogenate/membrane pellet). Conditions: displacement of [125I]-CGRP, room temperature 2 h. The procedure: CGRP Binding Assay. Tissue Culture. SK—N-MC cells were grown at 37° C. in 5% CO2 as a monolayer in medium consisting of MEM with Earle's salts and L-glutamine (Gibco) supplemented with 10% fetal bovine serum (Gibco). Cell Pellets. The cells were rinsed twice with phosphate-buffered saline (155 mM NaCl, 3.3 mM Na2HPO4, 1.1 mM KH2PO4, pH 7.4), and incubated for 5-10 min. at 4° C. in hypotonic lysis buffer consisting of 10 mM Tris (pH 7.4) and 5 mM EDTA. The cells were transferred from plates to polypropylene tubes (16×100 mm) and homogenized using a polytron. Homogenates were centrifuged at 32,000×g for 30 min. The pellets were resuspended in cold hypotonic lysis buffer with 0.1% mammalian protease inhibitor cocktail (Sigma) and assayed for protein concentration. The SK—N-MC homogenate was then aliquoted and stored at −80° C. until needed.
Radioligand Binding Assay. The compounds of invention were solubilized and carried through serial dilutions using 100% DMSO. Aliquots from the compound serial dilutions were further diluted 25 fold into assay buffer (50 mM Tris-Cl pH 7.5, 5 mM MgCl2, 0.005% Triton X-100) and transferred (volume 50 μl) into 96 well assay plates. [^125I]-CGRP (Amersham Biosciences) was diluted to 60 pM in assay buffer and a volume of 50 μl was added to each well. SK—N-MC pellets were thawed, diluted in assay buffer with fresh 0.1% mammalian protease inhibitor cocktail (Sigma), and homogenized again. SK—N-MC homogenate (5 μg/well) was added in a volume of 100 μl. The assay plates were then incubated at room temperature for 2 h. Assays were stopped by addition of excess cold wash buffer (20 mM Tris-Cl pH 7.5, 0.1% BSA) immediately followed by filtration over glass fiber filters (Whatman GF/B) previously soaked in 0.5% PEI. Non-specific binding was defined with 1 μM beta-CGRP. Protein bound radioactivity was determined using a gamma or scintillation counter. The IC50 was defined as the concentration of a compound of invention required to displace 50% of radioligand binding.
For orientation: In a radioligand displacement assay an active substance lowers the binding of a labelled ligand.
For the molecule `CC(C)(C)CN1Cc2c(ccc3[nH]ncc23)CC(N/C(=N/C#N)N2CCC(N3Cc4ccccc4NC3=O)CC2)C1=O` (stereo not drawn) [Example 88, (E, Z)-N′-cyano-N-(9-neopentyl-8-oxo-3,6,7,8,9,10-hexahydroazepino[3,4-e]indazol-7-yl)-4-(2-oxo-1,2-dihydroquinazolin-3(4H)-yl)piperidine-1-carboxamidine], the IC50 is 0.1 to 10 nM.
With `O=C(C[C@@H]1Cc2cc(Cl)c3[nH]ncc3c2CN(CC(F)(F)F)C1=O)N1CCC(c2cc3cccnc3[nH]c2=O)CC1` [Example 89, (S)-4-chloro-7-(2-oxo-2-(4-(2-oxo-1,2-dihydro-1,8-naphthyridin-3-yl)piperidin-1-yl)ethyl)-9-(2,2,2-trifluoroethyl)-6,7,9,10-tetrahydroazepino[3,4-e]indazol-8(3H)-one], the half-inhibitory concentration (IC50) is 0.1 to 10 nM.
The value for `O=C(C[C@@H]1Cc2cc(Cl)c3[nH]ncc3c2CN(CC(F)(F)F)C1=O)N1CCC(c2cc3ccccc3[nH]c2=O)CC1` [Example 90, (S)-4-chloro-7-(2-oxo-2-(4-(2-oxo-1,2-dihydroquinolin-3-yl)piperidin-1-yl)ethyl)-9-(2,2,2-trifluoroethyl)-6,7,9,10-tetrahydroazepino[3,4-e]indazol-8(3H)-one] was 0.1 to 10 nM; that for `O=C(C[C@@H]1Cc2cc(Cl)c3[nH]ncc3c2CN(CC(F)(F)F)C1=O)N1CCC(c2cc3cccc(F)c3[nH]c2=O)CC1` [Example 91, (S)-4-chloro-7-(2-(4-(8-fluoro-2-oxo-1,2-dihydroquinolin-3-yl)piperidin-1-yl)-2-oxoethyl)-9-(2,2,2-trifluoroethyl)-6,7,9,10-tetrahydroazepino[3,4-e]indazol-8(3H)-one] was 0.1 to 10 nM.
The value for `CC(C)(C)CN1Cc2c(cc(Cl)c3[nH]ncc23)C[C@@H](CC(=O)N2CCC(C3=Cc4ccccc4NS3(=O)=O)CC2)C1=O` [Example 92] was 10 to 100 nM; that for `CC(C)(C)CN1Cc2c(cc(Cl)c3[nH]ncc23)C[C@@H](CC(=O)N2CCC(c3ccc(Cl)cc3Cl)CC2)C1=O` [Example 93, (S)-4-chloro-7-(2-(4-(2,4-dichlorophenyl)piperidin-1-yl)-2-oxoethyl)-9-neopentyl-6,7,9,10-tetrahydroazepino[3,4-e]indazol-8(3H)-one] was 100 to 1000 nM.
The value for `CC(C)(C)CN1Cc2c(cc(Br)c3[nH]ncc23)C[C@@H](CC(=O)N2CCC(c3cc4ccccc4[nH]c3=O)CC2)C1=O` [Example 94, (S)-4-bromo-9-neopentyl-7-(2-oxo-2-(4-(2-oxo-1,2-dihydroquinolin-3-yl)piperidin-1-yl)ethyl)-6,7,9,10-tetrahydroazepino[3,4-e]indazol-8(3H)-one] was 0.1 to 10 nM.
Consider `CC(C)(C)CN1Cc2c(cc(Br)c3[nH]ncc23)C[C@@H](CC(=O)N2CCC(c3cc4cccc(F)c4[nH]c3=O)CC2)C1=O` [Example 95, (S)-4-bromo-7-(2-(4-(8-fluoro-2-oxo-1,2-dihydroquinolin-3-yl)piperidin-1-yl)-2-oxoethyl)-9-neopentyl-6,7,9,10-tetrahydroazepino[3,4-e]indazol-8(3H)-one], for which the half-maximal inhibitory concentration (IC50) fell in the range of 10 to 100 nM.
The value for `O=C(C[C@@H]1Cc2cc(Br)c3[nH]ncc3c2CN(CC(F)(F)F)C1=O)N1CCC(c2cc3cccnc3[nH]c2=O)CC1` [Example 96, (S)-4-bromo-7-(2-oxo-2-(4-(2-oxo-1,2-dihydro-1,8-naphthyridin-3-yl)piperidin-1-yl)ethyl)-9-(2,2,2-trifluoroethyl)-6,7,9,10-tetrahydroazepino[3,4-e]indazol-8(3H)-one] was 0.1 to 10 nM.
The value for `O=C(C[C@@H]1Cc2cc(Br)c3[nH]ncc3c2CN(CC(F)(F)F)C1=O)N1CCC(c2cc3ccccc3[nH]c2=O)CC1` [Example 97, (S)-4-bromo-7-(2-oxo-2-(4-(2-oxo-1,2-dihydroquinolin-3-yl)piperidin-1-yl)ethyl)-9-(2,2,2-trifluoroethyl)-6,7,9,10-tetrahydroazepino[3,4-e]indazol-8(3H)-one] was 0.1 to 10 nM; that for `O=C(C[C@@H]1Cc2cc(Br)c3[nH]ncc3c2CN(CC(F)(F)F)C1=O)N1CCC(c2cc3cccc(F)c3[nH]c2=O)CC1` [Example 98, (S)-4-bromo-7-(2-(4-(8-fluoro-2-oxo-1,2-dihydroquinolin-3-yl)piperidin-1-yl)-2-oxoethyl)-9-(2,2,2-trifluoroethyl)-6,7,9,10-tetrahydroazepino[3,4-e]indazol-8(3H)-one] was 10 to 100 nM; that for `CC(C)(C)CN1Cc2c(cc(Cl)c3[nH]ncc23)C[C@@H](N/C(=N/C#N)N2CCC(c3cc4ccccc4[nH]c3=O)CC2)C1=O` [Example 99] was 0.1 to 10 nM.
The value for `Cc1cc2c(c3cn[nH]c13)CN(CC(C)(C)C)C(=O)[C@H](CC(=O)N1CCC(c3cc4ccccc4[nH]c3=O)CC1)C2` [Example 100, (S)-4-methyl-9-neopentyl-7-(2-oxo-2-(4-(2-oxo-1,2-dihydroquinolin-3-yl)piperidin-1-yl)ethyl)-6,7,9,10-tetrahydroazepino[3,4-e]indazol-8(3H)-one] was 0.1 to 10 nM.
In turn, `Cc1cc2c(c3cn[nH]c13)CN(CC(C)(C)C)C(=O)[C@H](CC(=O)N1CCC(c3cc4cccc(F)c4[nH]c3=O)CC1)C2` [Example 101, (S)-7-(2-(4-(8-fluoro-2-oxo-1,2-dihydroquinolin-3-yl)piperidin-1-yl)-2-oxoethyl)-4-methyl-9-neopentyl-6,7,9,10-tetrahydroazepino[3,4-e]indazol-8(3H)-one] yielded an IC50 of 10 to 100 nM.
In the case of `Cc1cc2c(c3cn[nH]c13)CN(CC(F)(F)F)C(=O)[C@H](CC(=O)N1CCC(c3cc4ccccc4[nH]c3=O)CC1)C2` [Example 102, (S)-4-methyl-7-(2-oxo-2-(4-(2-oxo-1,2-dihydroquinolin-3-yl)piperidin-1-yl)ethyl)-9-(2,2,2-trifluoroethyl)-6,7,9,10-tetrahydroazepino[3,4-e]indazol-8(3H)-one] it was 0.1 to 10 nM; in that of `Cc1cc2c(c3cn[nH]c13)CN(CC(F)(F)F)C(=O)[C@H](CC(=O)N1CCC(c3cc4cccc(F)c4[nH]c3=O)CC1)C2` [Example 103, (S)-7-(2-(4-(8-fluoro-2-oxo-1,2-dihydroquinolin-3-yl)piperidin-1-yl)-2-oxoethyl)-4-methyl-9-(2,2,2-trifluoroethyl)-6,7,9,10-tetrahydroazepino[3,4-e]indazol-8(3H)-one], 10 to 100 nM; in that of `CC(C)c1cc2c(c3cn[nH]c13)CN(CC(C)(C)C)C(=O)[C@H](CC(=O)N1CCC(c3cc4ccccc4[nH]c3=O)CC1)C2` [Example 104, (S)-4-isopropyl-9-neopentyl-7-(2-oxo-2-(4-(2-oxo-1,2-dihydroquinolin-3-yl)piperidin-1-yl)ethyl)-6,7,9,10-tetrahydroazepino[3,4-e]indazol-8(3H)-one], 10 to 100 nM.
Consider `CC(C)c1cc2c(c3cn[nH]c13)CN(CC(C)(C)C)C(=O)[C@H](CC(=O)N1CCC(c3cc4cccc(F)c4[nH]c3=O)CC1)C2` [Example 105, (S)-7-(2-(4-(8-fluoro-2-oxo-1,2-dihydroquinolin-3-yl)piperidin-1-yl)-2-oxoethyl)-4-isopropyl-9-neopentyl-6,7,9,10-tetrahydroazepino[3,4-e]indazol-8(3H)-one], for which the IC50 fell in the range of 10 to 100 nM.
The value for `CC(C)c1cc2c(c3cn[nH]c13)CN(CC(F)(F)F)C(=O)[C@H](CC(=O)N1CCC(c3cc4ccccc4[nH]c3=O)CC1)C2` [Example 106, (S)-4-isopropyl-7-(2-oxo-2-(4-(2-oxo-1,2-dihydroquinolin-3-yl)piperidin-1-yl)ethyl)-9-(2,2,2-trifluoroethyl)-6,7,9,10-tetrahydroazepino[3,4-e]indazol-8(3H)-one] was 10 to 100 nM.
The value for `CC(C)c1cc2c(c3cn[nH]c13)CN(CC(F)(F)F)C(=O)[C@H](CC(=O)N1CCC(c3cc4cccc(F)c4[nH]c3=O)CC1)C2` [Example 107, (S)-7-(2-(4-(8-fluoro-2-oxo-1,2-dihydroquinolin-3-yl)piperidin-1-yl)-2-oxoethyl)-4-isopropyl-9-(2,2,2-trifluoroethyl)-6,7,9,10-tetrahydroazepino[3,4-e]indazol-8(3H)-one] was 100 to 1000 nM; that for `C=C(C)c1cc2c(c3cn[nH]c13)CN(CC(F)(F)F)C(=O)[C@H](CC(=O)N1CCC(c3cc4ccccc4[nH]c3=O)CC1)C2` [Example 108, (S)-7-(2-oxo-2-(4-(2-oxo-1,2-dihydroquinolin-3-yl)piperidin-1-yl)ethyl)-4-(prop-1-en-2-yl)-9-(2,2,2-trifluoroethyl)-6,7,9,10-tetrahydroazepino[3,4-e]indazol-8(3H)-one] was 10 to 100 nM.
